In brackets after ≈: the same amount, converted by molar mass. Read-outs that look alike come from different tables or passages of the source.
What was measured:
Assay in all cases: microbe, parasite or virus in culture
Parameters in all cases: species or system Candida albicans strains; Sensititre YeastOne SYO-09 colorimetric microdilution, visual MIC at >=50% growth inhibition
[1] = tested on: T1, Candida albicans ATCC90028; conditions: ATCC90028, 24 h
T1 construct: ATCC 90028
Protocol: (§1) Minimum inhibitory concentrations (MICs) of 5-FUrd were determined by broth microdilution method in accordance with the guidelines in Clinical and Laboratory Standards Institute (CLSI) document M27[25], using RPMI 1640 medium containing 0.165 M MOPs (pH 7.0) and 0.2% glucose, an inoculum of 10^3 cells/well, and incubated for 24 hr at 35°C, followed by OD600 reading by TECAN SPARK plate reader. The MIC50 of 5-FUrd was determined as the lowest dosage of 5-FUrd causing 50% inhibition of the growth by using the concentrations in the range of 0.004-2μg/mL. MICs of […] of human use (5-FC; four azoles: posaconazole, voriconazole, itraconazole, fluconazole; and three echinocandins: anidulafungin, caspofungin and micafungin) were determined by the microdilution colorimetric Sensititre YeastOne SYO-09 panel (TREK Diagnostic Systems, Cleveland, OH, USA); in accordance with the manufacturer’s instructions. MICs values were determined visually, after 24 hours of incubation, as the lowest concentration of drug that caused complete inhibition (amphotericin B) or a significant diminution (≥50% inhibition; flucytosine, azoles and echinocandins) of growth relative to that of the growth control. Table 2. Minimum inhibitory concentrations of 5-FUrd and antifungal drugs of clinical used for pathogenic and drug-resistant isolates of Candida albicans^a

[2] = tested on: T2, Candida albicans F2014a093; conditions: F2014A093, 24 h
T2 construct: F2014a093
Protocol: as §1

[3] = tested on: T3, Candida albicans F2014f090; conditions: F2014F090, 24 h
T3 construct: F2014f090
Protocol: as §1

[4] = tested on: T4, Candida albicans F2015b076; conditions: F2015B076, 24 h
T4 construct: F2015b076
Protocol: as §1

[5] = tested on: T5, Candida albicans F2015f019; conditions: F2015F019, 24 h
T5 construct: F2015f019
Protocol: as §1

[6] = tested on: T6, Candida albicans F2016a067; conditions: F2016A067, 24 h
T6 construct: F2016a067
Protocol: as §1

[7] = tested on: T7, Candida albicans F2016c087; conditions: F2016C087, 24 h
T7 construct: F2016c087
Protocol: as §1

[8] = tested on: T8, Candida albicans F2016e085; conditions: F2016E085, 24 h
T8 construct: F2016e085
Protocol: as §1

[9] = tested on: T9, Candida albicans F2016f024; conditions: F2016F024, 24 h
T9 construct: F2016f024
Protocol: as §1

[10] = tested on: T10, Candida albicans F2016g048; conditions: F2016G048, 24 h
T10 construct: F2016g048
Protocol: as §1

[11] = tested on: T11, Candida albicans F2017g023; conditions: F2017G023, 24 h
T11 construct: F2017g023
Protocol: as §1

Candida albicans SC5314 = tested on: T12, Candida albicans SC5314; conditions: SC5314, 24 h
T12 construct: SC5314
Protocol: as §1

[12] = read-out: Itraconazole MIC (µg/mL)
[13] = read-out: Fluconazole MIC (µg/mL)
[14] = read-out: Posaconazole MIC (µg/mL)
[15] = read-out: Voriconazole MIC (µg/mL)

CCC(C)n1ncn(-c2ccc(N3CCN(c4ccc(OC[C@H]5CO[C@](Cn6cncn6)(c6ccc(Cl)cc6Cl)O5)cc4)CC3)cc2)c1=O (mixture of isomers) [Itraconazole, itraconazole]
MIC [1, 12]: 0.06 µg/mL | MIC [2, 12]: > 16 µg/mL | MIC [3, 12]: > 16 µg/mL | MIC [4, 12]: 0.5 µg/mL | MIC [5, 12]: 0.12 µg/mL | MIC [6, 12]: > 16 µg/mL | MIC [7, 12]: 0.12 µg/mL | MIC [8, 12]: 0.03 µg/mL | MIC [9, 12]: 0.12 µg/mL | MIC [10, 12]: 1 µg/mL | MIC [11, 12]: 0.06 µg/mL | MIC (Candida albicans SC5314; [12]): 0.06 µg/mL

Nc1[nH]c(=O)ncc1F [5-FC, 5-flucytosine]
MIC ([1]; read-out: 5-FC MIC (µg/mL)): 0.5 µg/mL (≈ 3.87 µM) | MIC ([2]; read-out: 5-FC MIC (µg/mL)): 0.03 µg/mL (≈ 0.232 µM) | MIC ([3]; read-out: 5-FC MIC (µg/mL)): 0.12 µg/mL (≈ 0.93 µM) | MIC ([4]; read-out: 5-FC MIC (µg/mL)): 0.03 µg/mL (≈ 0.232 µM) | MIC ([5]; read-out: 5-FC MIC (µg/mL)): 0.03 µg/mL (≈ 0.232 µM) | MIC ([6]; read-out: 5-FC MIC (µg/mL)): 0.03 µg/mL (≈ 0.232 µM) | MIC ([7]; read-out: 5-FC MIC (µg/mL)): > 64 µg/mL | MIC ([8]; read-out: 5-FC MIC (µg/mL)): 8 µg/mL (≈ 62 µM) | MIC ([9]; read-out: 5-FC MIC (µg/mL)): 0.03 µg/mL (≈ 0.232 µM) | MIC ([10]; read-out: 5-FC MIC (µg/mL)): 0.03 µg/mL (≈ 0.232 µM) | MIC ([11]; read-out: 5-FC MIC (µg/mL)): > 64 µg/mL | MIC (Candida albicans SC5314; read-out: 5-FC MIC (µg/mL)): 0.06 µg/mL (≈ 0.465 µM)

OC(Cn1cncn1)(Cn1cncn1)c1ccc(F)cc1F [Fluconazole, fluconazole]
MIC [1, 13]: 1 µg/mL (≈ 3.27 µM) | MIC [2, 13]: > 256 µg/mL | MIC [3, 13]: 2 µg/mL (≈ 6.53 µM) | MIC [4, 13]: 256 µg/mL (≈ 836 µM) | MIC [5, 13]: 4 µg/mL (≈ 13.1 µM) | MIC [6, 13]: 64 µg/mL (≈ 209 µM) | MIC [7, 13]: 0.5 µg/mL (≈ 1.63 µM) | MIC [8, 13]: 0.06 µg/mL (≈ 0.196 µM) | MIC [9, 13]: 8 µg/mL (≈ 26.1 µM) | MIC [10, 13]: 256 µg/mL (≈ 836 µM) | MIC [11, 13]: 0.5 µg/mL (≈ 1.63 µM) | MIC (Candida albicans SC5314; [13]): 0.5 µg/mL (≈ 1.63 µM)

CC[C@@H]([C@H](C)O)n1ncn(-c2ccc(N3CCN(c4ccc(OC[C@@H]5CO[C@@](Cn6cncn6)(c6ccc(F)cc6F)C5)cc4)CC3)cc2)c1=O [Posaconazole, posaconazole]
MIC [1, 14]: 0.06 µg/mL (≈ 0.0856 µM) | MIC [2, 14]: > 8 µg/mL | MIC [3, 14]: > 8 µg/mL | MIC [4, 14]: 1 µg/mL (≈ 1.43 µM) | MIC [5, 14]: 0.12 µg/mL (≈ 0.171 µM) | MIC [6, 14]: 0.03 µg/mL (≈ 0.0428 µM) | MIC [7, 14]: 0.06 µg/mL (≈ 0.0856 µM) | MIC [8, 14]: 0.015 µg/mL (≈ 0.0214 µM) | MIC [9, 14]: 0.25 µg/mL (≈ 0.357 µM) | MIC [10, 14]: 1 µg/mL (≈ 1.43 µM) | MIC [11, 14]: 0.03 µg/mL (≈ 0.0428 µM) | MIC (Candida albicans SC5314; [14]): 0.015 µg/mL (≈ 0.0214 µM)

C[C@@H](c1ncncc1F)[C@](O)(Cn1cncn1)c1ccc(F)cc1F [Voriconazole, voriconazole]
MIC [1, 15]: 0.015 µg/mL (≈ 0.0429 µM) | MIC [2, 15]: > 8 µg/mL | MIC [3, 15]: 0.25 µg/mL (≈ 0.716 µM) | MIC [4, 15]: > 8 µg/mL | MIC [5, 15]: 0.06 µg/mL (≈ 0.172 µM) | MIC [6, 15]: 0.03 µg/mL (≈ 0.0859 µM) | MIC [7, 15]: 0.015 µg/mL (≈ 0.0429 µM) | MIC [8, 15]: 0.004 µg/mL (≈ 0.0115 µM) | MIC [9, 15]: 0.5 µg/mL (≈ 1.43 µM) | MIC [10, 15]: > 8 µg/mL | MIC [11, 15]: 0.004 µg/mL (≈ 0.0115 µM) | MIC (Candida albicans SC5314; [15]): 0.015 µg/mL (≈ 0.0429 µM)

— doi:10.1101/466938v1, “The distinct biochemical property enables thymidylate kinase as a drug target and participates in pyrimidine drug sensitivity in Candida albicans” (biorxiv, 2018)
